Laboratory results reported in patent US20240383867A1, “CRYSTALLINE FORMS OF ISOXAZOLINE COMPOUND” (ELANCO US, INC., priority 2021, published 2024).

How the values were obtained:
[1] = format: physicochemical
Method: 53 mg of Sample 42 (Form A) and 47 mg of Sample (Form C) were suspended in 1 mL of an ethyl acetate/heptane (1:3) mixture at room temperature. After two hours of stirring at room temperature, one additional mL of the solvent mixture was added to the suspension. After another 1 hour of stirring, the suspension was seeded with Sample 42 and Sample 55 (about 10-20 mg). Further stirring was conducted at room temperature for one week. Then the suspension was filtered using a centrifugal unit filter (PTFE, 0.2 μm, 5000 rpm, room temperature).
The remaining substance from Sample 56 (approx. 42 mg) was further equilibrated in 0.5 mL of an ethyl acetate/heptane (1:3) mixture at room temperature After one month of stirring, the suspension was filtered using a centrifugal unit filter (PTFE, 0.2 μm, 5000 rpm, room temperature). […] The resulting Crystalline Form C of Example 27a is herein referred to as Sample 56A.
71 mg of Sample 42 (Form A) and 73 mg of Sample 55 (Form C) were suspended in 1 mL of an ethyl acetate/heptane (1:3) mixture at 60° C. After two hours of stirring at 60° C., one additional mL of the solvent mixture was added to the suspension. After another 1 hour of stirring, the suspension was seeded with Samples 42 and 55 (about 10-20 mg). Further stirring was conducted at 60° C. After four days of stirring, a solution with material on the glass side was obtained. Approx. […]

[2] = hygroscopicity testing via dynamic vapor sorption (DVS); format: physicochemical; details: for hygroscopicity classification: DVS, class based on mass gain at 85% RH; for absorption of water (DVS): storage at 95% relative humidity for five hours
Method: Sorption isotherms were obtained using an SPS11-100n Sorptions Prufsystem from ProUmid (formerly Projekt Messtechnik). About 5 mg to about 20 mg of sample were placed into an aluminum sample plan on top of a microbalance and allowed to equilibrate at 50% relative humidity (RH) before starting the following applied measurement program. Humidity change rates of 5% per hour were used. The applied measurement program can be described as follows: • (1) 2 h at 50% RH • (2) 50→0% RH (5%/h); 5 h at 0% RH • (3) 0→95% RH (5%/h); 5 h at 95% RH • (4) 95→0% RH (5%/h); 5 h at 0% RH • (5) 0→95% RH (5%/h); 5 h at 95% RH • (6) 95→50% RH (5%/h); 2 h at 50% RH. The sample was recovered after completion of the isotherm and re-analyzed by XRPD. Hygroscopicity was classified based on the mass gain at 85% relative humidity (RH) relative to the initial mass as follows: deliquescent (sufficient water adsorbed to form a liquid), very hygroscopic (mass increase […]), hygroscopic (mass increase <15% but ≥2%), slightly hygroscopic (mass increase <2% but ≥0.2%), or non-hygroscopic (mass increase <0.2%).

[3] = solubility in common organic solvents; format: physicochemical
[4] = system: fleas (Ctenocephalides felis); details: in vitro ingesting activity; cited from earlier work
[5] = in vivo; cited from earlier work

| SMILES | relative stability of Form A versus Form C [1] | hygroscopicity classification [2] | absorption of water (DVS) [2] | also measured |
| --- | --- | --- | --- | --- |
| Cc1cc(C2=NO[C@@](c3cc(C(F)(F)F)cc(Cl)c3F)(C(F)(F)F)C2)ccc1C(=O)NCC(=O)NCC(F)(F)F [Crystalline Form A, 2-methyl-N-[2-oxo-2-(2,2,2-trifluoroethylamino)ethyl]-4-[(5S)-5-[3-chloro-2-fluoro-5-(trifluoromethyl)phenyl]-5-(trifluoromethyl)-4H-isoxazol-3-yl]benzamide] | stable form at room temperature | slightly hygroscopic (slightly hygroscopic (mass increase <2% but ≥0.2%)) | ~0.5% | – |
| Cc1cc(C2=NO[C@@](c3cc(C(F)(F)F)cc(Cl)c3F)(C(F)(F)F)C2)ccc1C(=O)NCC(=O)NCC(F)(F)F [Crystalline Form B, 2-methyl-N-[2-oxo-2-(2,2,2-trifluoroethylamino)ethyl]-4-[(5S)-5-[3-chloro-2-fluoro-5-(trifluoromethyl)phenyl]-5-(trifluoromethyl)-4H-isoxazol-3-yl]benzamide] | – | – | up to 1.2% | – |
| Cc1cc(C2=NO[C@@](c3cc(C(F)(F)F)cc(Cl)c3F)(C(F)(F)F)C2)ccc1C(=O)NCC(=O)NCC(F)(F)F [Form C, 2-methyl-N-[2-oxo-2-(2,2,2-trifluoroethylamino)ethyl]-4-[(5S)-5-[3-chloro-2-fluoro-5-(trifluoromethyl)phenyl]-5-(trifluoromethyl)-4H-isoxazol-3-yl]benzamide] | stable form at 30° and above | – | – | – |
| Cc1cc(C2=NO[C@@](c3cc(C(F)(F)F)cc(Cl)c3F)(C(F)(F)F)C2)ccc1C(=O)NCC(=O)NCC(F)(F)F [amorphous form of the compound of Formula 1] [2-methyl-N-[2-oxo-2-(2,2,2-trifluoroethylamino)ethyl]-4-[(5S)-5-[3-chloro-2-fluoro-5-(trifluoromethyl)phenyl]-5-(trifluoromethyl)-4H-isoxazol-3-yl]benzamide] | – | slightly hygroscopic (slightly hygroscopic (mass increase <2% but ≥0.2%)) | ~1.5% | solubility in common organic solvents [3]: high solubility; solid form after DVS measurement (XRPD) ([2]; XRPD after DVS): No crystallization occurred |
| Cc1cc(C2=NO[C@@](c3cc(C(F)(F)F)cc(Cl)c3F)(C(F)(F)F)C2)ccc1C(=O)NCC(=O)NCC(F)(F)F [compound of Formula 1, 2-methyl-N-[2-oxo-2-(2,2,2-trifluoroethylamino)ethyl]-4-[(5S)-5-[3-chloro-2-fluoro-5-(trifluoromethyl)phenyl]-5-(trifluoromethyl)-4H-isoxazol-3-yl]benzamide] | – | – | – | EC50 [4]: < 1 ppm; half-life [5]: 50 days |
